Experimental data: patent US20240238424A1, “HETEROBIFUNCTIONAL COMPOUNDS AND METHODS OF TREATING DISEASE” (Halda Therapeutics OpCo, Inc., priority 2021, published 2024)

Columns and labels:
Type in all cases: cell-based
GSPT1 = molecular target: T1, GSPT1 (Homo sapiens, UniProt P15170+Q96SW2); test: GSPT1 HiBit degradation assay; settings: HEK293 LgBiT cells expressing GSPT1_HiBiT, luminescence after 6 hours
T1 construct: host or cells: HEK293 LgBiT cell line
Procedure, shortened: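 HEK293 cells stably expressing LgBiT and GSPT1-HiBiT, seeded 18-24 h before dosing, were treated with titrated compound plus endurazine (0.5× final) at 37 °C. Luminescence loss after 6 h reflects GSPT1 degradation; DC50 is the concentration giving 50% degradation.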

HeLa KRas G12C cells = test: Cellular growth inhibition assay (CTG), HeLa KRas G12C cells; settings: Homo sapiens, CellTiter-Glo 2.0, day-5
Protocol: (§1) Cells were seeded in Poly-D-lysine-treated 384-well white plates, with 25 μL cell suspension at 250 cells/well for continuous treatments, and 1000 cells/well for washout treatments. Plates were spun at 300×g for 3 minutes, and cells were cultured at 37° C. with 5% CO2 in a humidified tissue culture incubator.
(§2) After 24 hours, the test compounds were diluted with cell culture medium in 96 deep well plates. DMSO was used as a negative control. A 25 μL aliquot of compound-containing medium was added in each well, at a final top concentration of 10 μM or 30 μM test compound, with 3-fold dilutions. For washout assays, after 4 hours, cell medium with compound was removed, and the cells were washed with 75p L fresh medium. Plates were then spun at 300×g for 3 minutes and replaced with 50 μL fresh medium in each well. Plates were then spun at 300×g for 3 minutes again and cultured at 37° C. with 5% CO2.
(§3) At day-0 and day-5 of compound treatments, cell viability was quantified with CellTiter-Glo 2.0 (Promega). After equilibrating cell plates at room temperature for 30 minutes, 25 μL CellTiter-Glo 2.0 reagent was dispensed into each well (on top of 50 μL of cell culture). Plates were mixed on a shaker for 2 minutes at 500 rpm, followed by a 10-minute incubation at room temperature. Luminescence readings were measured with an EnVision Plate Reader. Data was normalized to DMSO treated day-0 cell wells. A four-parameter non-linear regression curve fit was applied to dose-response data in Prism to determine the half maximal growth inhibitory concentration (GI50) of each compound.

[1] = test system: 293 mutant EGFR_T790M L858R Cells; test: Cellular growth inhibition assay (CTG), 293 mutant EGFR_T790M L858R cells; settings: 293 mutant EGFR T790M L858R cells, CellTiter-Glo 2.0, day-5
Protocol: as §1, §2, §3

T1 sequence (P15170 whole entry): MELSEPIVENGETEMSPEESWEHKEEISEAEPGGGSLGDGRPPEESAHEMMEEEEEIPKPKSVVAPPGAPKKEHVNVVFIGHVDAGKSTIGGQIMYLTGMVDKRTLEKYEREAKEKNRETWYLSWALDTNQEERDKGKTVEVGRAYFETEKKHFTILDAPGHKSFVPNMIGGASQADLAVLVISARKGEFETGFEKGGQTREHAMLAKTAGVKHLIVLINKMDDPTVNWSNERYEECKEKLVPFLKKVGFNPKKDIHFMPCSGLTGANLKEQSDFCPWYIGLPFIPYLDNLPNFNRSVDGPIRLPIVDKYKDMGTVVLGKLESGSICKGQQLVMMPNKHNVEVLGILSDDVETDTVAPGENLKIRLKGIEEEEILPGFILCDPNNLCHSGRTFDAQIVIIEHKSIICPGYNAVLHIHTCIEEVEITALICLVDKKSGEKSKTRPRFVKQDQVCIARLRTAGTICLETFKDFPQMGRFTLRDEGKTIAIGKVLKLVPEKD
T1 sequence (Q96SW2 whole entry): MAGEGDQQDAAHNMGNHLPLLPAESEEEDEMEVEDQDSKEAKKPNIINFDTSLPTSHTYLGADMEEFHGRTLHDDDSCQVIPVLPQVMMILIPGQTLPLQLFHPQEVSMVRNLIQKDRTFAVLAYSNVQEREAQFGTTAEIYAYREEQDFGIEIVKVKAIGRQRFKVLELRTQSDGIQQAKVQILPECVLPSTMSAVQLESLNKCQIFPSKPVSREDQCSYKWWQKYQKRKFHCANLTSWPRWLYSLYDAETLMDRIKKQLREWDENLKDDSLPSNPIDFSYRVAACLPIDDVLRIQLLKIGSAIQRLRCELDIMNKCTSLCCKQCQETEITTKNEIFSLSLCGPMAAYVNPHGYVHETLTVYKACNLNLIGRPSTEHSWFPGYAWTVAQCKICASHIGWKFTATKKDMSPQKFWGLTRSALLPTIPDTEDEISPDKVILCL
T1 sequence (Q16531 whole entry partner): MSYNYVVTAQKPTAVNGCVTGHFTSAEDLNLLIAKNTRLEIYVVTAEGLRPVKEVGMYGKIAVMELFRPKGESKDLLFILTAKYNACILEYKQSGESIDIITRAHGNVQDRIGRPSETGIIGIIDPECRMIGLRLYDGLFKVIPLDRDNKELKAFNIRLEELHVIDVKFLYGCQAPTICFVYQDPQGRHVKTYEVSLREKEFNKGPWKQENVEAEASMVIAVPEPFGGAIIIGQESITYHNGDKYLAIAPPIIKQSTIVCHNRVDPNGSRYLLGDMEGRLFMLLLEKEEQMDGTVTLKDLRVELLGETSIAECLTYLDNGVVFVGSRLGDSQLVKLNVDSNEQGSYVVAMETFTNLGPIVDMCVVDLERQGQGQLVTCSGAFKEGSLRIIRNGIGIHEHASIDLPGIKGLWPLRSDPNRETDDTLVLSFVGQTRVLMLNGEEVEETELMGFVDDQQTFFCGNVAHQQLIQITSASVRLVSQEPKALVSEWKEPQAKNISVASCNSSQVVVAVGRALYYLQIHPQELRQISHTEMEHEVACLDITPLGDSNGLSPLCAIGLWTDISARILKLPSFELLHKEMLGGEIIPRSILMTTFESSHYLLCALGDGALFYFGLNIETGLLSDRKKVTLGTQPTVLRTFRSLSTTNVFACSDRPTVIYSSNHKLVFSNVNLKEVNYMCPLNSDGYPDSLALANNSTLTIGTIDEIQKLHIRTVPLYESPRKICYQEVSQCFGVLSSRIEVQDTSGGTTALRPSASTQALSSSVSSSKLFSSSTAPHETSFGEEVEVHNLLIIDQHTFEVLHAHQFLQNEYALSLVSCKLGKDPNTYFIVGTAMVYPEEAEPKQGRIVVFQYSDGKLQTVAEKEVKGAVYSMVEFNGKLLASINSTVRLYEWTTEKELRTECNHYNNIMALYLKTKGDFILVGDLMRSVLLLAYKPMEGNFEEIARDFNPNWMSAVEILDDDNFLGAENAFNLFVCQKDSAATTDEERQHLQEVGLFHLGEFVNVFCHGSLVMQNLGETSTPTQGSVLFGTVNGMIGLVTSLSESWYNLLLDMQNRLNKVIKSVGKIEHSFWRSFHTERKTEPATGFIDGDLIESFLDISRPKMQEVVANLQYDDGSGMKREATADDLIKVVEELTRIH

Compound	DC50 (GSPT1; Table 3) [nM]	GI50 (HeLa KRas G12C cells) [nM]	DC50 (GSPT1; Table 3A) [nM]	GI50 [1] [nM]
C=C(F)C(=O)N1CCN(c2nc(OC[C@@H]3CCCN3CCOCCOCCOCCOCCOCCOCCOCCOCCOCCOCCOCCOCCOc3cc(Cl)cc(NC(=O)NCc4ccc5c(c4)CN(C4CCC(=O)NC4=O)C5=O)c3)nc3c2CCN(c2cccc4cccc(Cl)c24)C3)C[C@@H]1CC#N (stereo partly drawn) [Compound I-42]	> 10000	> 10000		
C=C(F)C(=O)N1CCN(c2nc(OC[C@@H]3CCCN3CCOCCOCCOCCOCCOCCOCCOCCOCCOCCCCCc3cc(Cl)cc(NC(=O)NCc4ccc5c(c4)CN(C4CCC(=O)NC4=O)C5=O)c3)nc3c2CCN(c2cccc4cccc(Cl)c24)C3)C[C@@H]1CC#N (stereo partly drawn) [Compound I-44]	250 to 5000	1000 to 3000		
C=C(F)C(=O)N1CCN(c2nc(OC[C@@H]3CCCN3CCOCCOCCCCCCCCCCCCCCc3cc(Cl)cc(NC(=O)NCc4ccc5c(c4)CN(C4CCC(=O)NC4=O)C5=O)c3)nc3c2CCN(c2cccc4cccc(Cl)c24)C3)C[C@@H]1CC#N (stereo partly drawn) [Compound I-48]	250 to 5000	3000 to 10000		
C=C(F)C(=O)N1CCN(c2nc(OC[C@@H]3CCCN3CCOCCOCCOCCOCCCCCCCCCCCCCCc3cc(Cl)cc(NC(=O)NCc4ccc5c(c4)CN(C4CCC(=O)NC4=O)C5=O)c3)nc3c2CCN(c2cccc4cccc(Cl)c24)C3)C[C@@H]1CC#N (stereo partly drawn) [Compound I-49]	250 to 5000	> 10000		
C=CC(=O)Nc1cc(Nc2nccc(-c3cn(C)c4ccccc34)n2)c(OC)cc1N(C)CCN(C)CCOCCOCCOCCCCCc1cc(Cl)cc(NC(=O)NCc2ccc3c(c2)CN(C2CCC(=O)NC2=O)C3=O)c1 (stereo not drawn) [Compound I-102]			250 to 5000	1000 to 5000
CN(C/C=C/C(=O)N1CCN(c2nc(OC[C@@H]3CCCN3C)nc3c2CCN(c2cccc4cccc(Cl)c24)C3)C[C@@H]1CC#N)CCOCCOCCOCCOCCOCCCCCc1cc(Cl)cc(NC(=O)NCc2ccc3c(c2)CN(C2CCC(=O)N(C)C2=O)C3=O)c1 (stereo partly drawn) [Compound I-116]		1000 to 3000	250 to 5000	
C=C(F)C(=O)N1CCN(c2nc(OC[C@@H]3CCCN3CCCOCCOCCOCCOCCOCCOCCOCCCCCc3cc(Cl)cc(NC(=O)NCc4ccc5c(c4)CN(C4CCC(=O)NC4=O)C5=O)c3)nc3c2CCN(c2cccc4cccc(Cl)c24)C3)C[C@@H]1CC#N (stereo partly drawn) [Compound I-118]		1000 to 3000	250 to 5000	
COc1cc(N2CCN(C(=O)COCCOCCOCCOCCOCCOCCOCCCCCc3cc(Cl)cc(NC(=O)NCc4ccc5c(c4)CN(C4CCC(=O)NC4=O)C5=O)c3)CC2)ccc1Nc1ncc(Cl)c(Nc2ccccc2P(C)(C)=O)n1 (stereo not drawn) [Compound I-120]			250 to 5000	1000 to 5000
C=CC(=O)N[C@@H]1CN(c2nc(Nc3cn(CCOCCOCCOCCCCCc4cc(Cl)cc(NC(=O)NCc5ccc6c(c5)CN(C5CCC(=O)NC5=O)C6=O)c4)nc3OC)c3ncn(C)c3n2)C[C@H]1F (stereo partly drawn) [Compound I-122]			< 250	100 to 1000
C=C(F)C(=O)N1CCN(c2nc(OC[C@@H]3CCCN3CCCOCCOCCOCCOCCOCCOCCOCCOCCOCCCCCc3ccc(Cl)cc3NC(=O)NCc3ccc4c(c3)CN(C3CCC(=O)NC3=O)C4=O)nc3c2CCN(c2cccc4cccc(Cl)c24)C3)C[C@@H]1CC#N (stereo partly drawn) [Compound I-134]		3000 to 10000	250 to 5000	
C=C(F)C(=O)N1CCN(c2nc(OC[C@@H]3CCCN3CCCOCCOCCOCCOCCOCCOCCOCCCCCc3ccc(Cl)cc3NC(=O)NCc3ccc4c(c3)CN(C3CCC(=O)NC3=O)C4=O)nc3c2CCN(c2cccc4cccc(Cl)c24)C3)C[C@@H]1CC#N (stereo partly drawn) [Compound I-137]		3000 to 10000	250 to 5000	
C=C(F)C(=O)N1CCN(c2nc(OC[C@@H]3CCCN3CCCOCCOCCOCCOCCOCCOCCOCCOCCOCCOCCOCCCCCc3ccc(Cl)cc3NC(=O)NCc3ccc4c(c3)CN(C3CCC(=O)NC3=O)C4=O)nc3c2CCN(c2cccc4cccc(Cl)c24)C3)C[C@@H]1CC#N (stereo partly drawn) [Compound I-138]		3000 to 10000	250 to 5000	
C=C(F)C(=O)N1CCN(c2nc(OC[C@@H]3CCCN3CCCOCCOCCOCCOCCOCCOCCOCCCCCc3cccc(NC(=O)NCc4ccc5c(c4)CN(C4CCC(=O)NC4=O)C5=O)n3)nc3c2CCN(c2cccc4cccc(Cl)c24)C3)C[C@@H]1CC#N (stereo partly drawn) [Compound I-147]		3000 to 10000	5000 to 10000	
C=C(F)C(=O)N1CCN(c2nc(OC[C@@H]3CCCN3CCCOCCOCCOCCOCCOCCOCCOCCOCCOCCOCCOCCCCCc3cccc(NC(=O)NCc4ccc5c(c4)CN(C4CCC(=O)NC4=O)C5=O)n3)nc3c2CCN(c2cccc4cccc(Cl)c24)C3)C[C@@H]1CC#N (stereo partly drawn) [Compound I-148]		3000 to 10000	250 to 5000	
C=C(F)C(=O)N1CCN(c2nc(OC[C@@H]3CCCN3CCCOCCOCCOCCOCCOCCCCCc3cccc(NC(=O)NCc4ccc5c(c4)CN(C4CCC(=O)NC4=O)C5=O)n3)nc3c2CCN(c2cccc4cccc(Cl)c24)C3)C[C@@H]1CC#N (stereo partly drawn) [Compound I-152]		3000 to 10000	> 10000	

Continued, in another order:

DC50 (GSPT1; Table 3) [nM]	GI50 (HeLa KRas G12C cells) [nM]	DC50 (GSPT1; Table 3A) [nM]	Compound	GI50 [1] [nM]
< 250	< 1000		C=C(F)C(=O)N1CCN(c2nc(OC[C@@H]3CCCN3CCOCCOCCOCCOCCOCCOCCOCCOCCCCCCCCc3cc(Cl)cc(NC(=O)NCc4ccc5c(c4)CN(C4CCC(=O)NC4=O)C5=O)c3)nc3c2CCN(c2cccc4cccc(Cl)c24)C3)C[C@@H]1CC#N (stereo partly drawn) [Compound I-38]	
< 250	< 1000		C=C(F)C(=O)N1CCN(c2nc(OC[C@H]3CCCN3CCOCCOCCOCCOCCOCCOCCOCCOCCOCCOCCCCCCCCc3cc(Cl)cc(NC(=O)NCc4ccc5c(c4)CN(C4CCC(=O)NC4=O)C5=O)c3)nc3c2CCN(c2cccc4cccc(Cl)c24)C3)C[C@H]1CC#N (stereo partly drawn) [Compound I-39]	
< 250	< 1000		C=C(F)C(=O)N1CCN(c2nc(OC[C@@H]3CCCN3CCOCCOCCOCCOCCCCCCCCc3cc(Cl)cc(NC(=O)NCc4ccc5c(c4)CN(C4CCC(=O)NC4=O)C5=O)c3)nc3c2CCN(c2cccc4cccc(Cl)c24)C3)C[C@@H]1CC#N (stereo partly drawn) [Compound I-40]	
< 250	< 1000		C=C(F)C(=O)N1CCN(c2nc(OC[C@@H]3CCCN3CCOCCOCCOCCOCCOCCOCCCCCCCCc3cc(Cl)cc(NC(=O)NCc4ccc5c(c4)CN(C4CCC(=O)NC4=O)C5=O)c3)nc3c2CCN(c2cccc4cccc(Cl)c24)C3)C[C@@H]1CC#N (stereo partly drawn) [Compound I-41]	
250 to 5000	1000 to 3000		C=C(F)C(=O)N1CCN(c2nc(OC[C@@H]3CCCN3CCOCCOCCOCCOCCOCCOCCOCCCCCc3cc(Cl)cc(NC(=O)NCc4ccc5c(c4)CN(C4CCC(=O)NC4=O)C5=O)c3)nc3c2CCN(c2cccc4cccc(Cl)c24)C3)C[C@@H]1CC#N (stereo partly drawn) [Compound I-43]	
< 250	< 1000		C=C(F)C(=O)N1CCN(c2nc(OC[C@@H]3CCCN3CCOCCOCCOCCOCCOCCOCCOCCOCCOCCOCCOCCOCCCCCCCCc3cc(Cl)cc(NC(=O)NCc4ccc5c(c4)CN(C4CCC(=O)NC4=O)C5=O)c3)nc3c2CCN(c2cccc4cccc(Cl)c24)C3)C[C@@H]1CC#N (stereo partly drawn) [Compound I-46]	
< 250	< 1000		C=C(F)C(=O)N1CCN(c2nc(OC[C@@H]3CCCN3CCOCCOCCOCCOCCOCCOCCOCCOCCOCCOCCOCCOCCOCCOCCCCCCCCc3cc(Cl)cc(NC(=O)NCc4ccc5c(c4)CN(C4CCC(=O)NC4=O)C5=O)c3)nc3c2CCN(c2cccc4cccc(Cl)c24)C3)C[C@@H]1CC#N (stereo partly drawn) [Compound I-47]	
250 to 5000	< 1000		C=C(F)C(=O)N1CCN(c2nc(OC[C@@H]3CCCN3CCOCCOCCOCCOCCOCCOCCCCCCCCCCCCCCc3cc(Cl)cc(NC(=O)NCc4ccc5c(c4)CN(C4CCC(=O)NC4=O)C5=O)c3)nc3c2CCN(c2cccc4cccc(Cl)c24)C3)C[C@@H]1CC#N (stereo partly drawn) [Compound I-50]	
250 to 5000	< 1000		C=C(F)C(=O)N1CCN(c2nc(OC[C@@H]3CCCN3CCOCCOCCOCCOCCOCCOCCOCCOCCCCCCCCCCCCCCc3cc(Cl)cc(NC(=O)NCc4ccc5c(c4)CN(C4CCC(=O)NC4=O)C5=O)c3)nc3c2CCN(c2cccc4cccc(Cl)c24)C3)C[C@@H]1CC#N (stereo partly drawn) [Compound I-51]	
250 to 5000	< 1000		C=C(F)C(=O)N1CCN(c2nc(OC[C@@H]3CCCN3CCOCCOCCOCCOCCOCCOCCOCCOCCOCCOCCCCCCCCCCCCCCc3cc(Cl)cc(NC(=O)NCc4ccc5c(c4)CN(C4CCC(=O)NC4=O)C5=O)c3)nc3c2CCN(c2cccc4cccc(Cl)c24)C3)C[C@@H]1CC#N (stereo partly drawn) [Compound I-52]	
< 250	< 1000		C=C(F)C(=O)N1CCN(c2nc(OC[C@@H]3CCCN3CCOCCOCCOCCOCCOCCOCCOCCOCCOCCOCCOCCOCCCCCCCCCCCCCCc3cc(Cl)cc(NC(=O)NCc4ccc5c(c4)CN(C4CCC(=O)NC4=O)C5=O)c3)nc3c2CCN(c2cccc4cccc(Cl)c24)C3)C[C@@H]1CC#N (stereo partly drawn) [Compound I-53]	
250 to 5000	< 1000		C=C(F)C(=O)N1CCN(c2nc(OC[C@@H]3CCCN3CCOCCOCCOCCOCCOCCCCCc3cc(Cl)cc(NC(=O)NCc4ccc5c(c4)CN(C4CCC(=O)NC4=O)C5=O)c3)nc3c2CCN(c2cccc4cccc(Cl)c24)C3)C[C@@H]1CC#N (stereo partly drawn) [Compound I-54]	
